# Peptide text beside a SMILES is read from it.
# Experiments:
# [1] = target: ER β (Homo sapiens, UniProt Q92731); experiment: Receptor binding assay for estrogen receptor beta
# [2] = target: anti-estradiol mAb, clone 15; experiment: Competitive binding radioimmunoassay with [3H]-estradiol; design: species or system mouse; details: RIA, FIG. 1; read-out: IC50, competition with [3H]-estradiol for binding sites of anti-estradiol mAb clone 15
# [3] = test system: anti-E2 antibodies, clones 8D9, 11B6 and 2F9; experiment: ELISA: competition with solid-phase estradiol ovalbumin conjugate for other high affinity anti-E2 antibodies; assay type: binding; details: peptide at 0.5 mM
# Text: (§1) ELISA methodology was used first for the initial screening of the various peptides for antibody binding specificity.
# [4] = test system: anti-E2, clone 15; experiment: ELISA: competition with solid-phase estradiol ovalbumin conjugate for anti-E2 clone 15; assay type: binding, mouse
# Text: as §1
# [5] = target: anti-estradiol mAb clone 15; experiment: Competitive immunoassay: inhibition of binding of labeled E2 (estradiol ovalbumin europium conjugate) to anti-E2 clone 15; design: species or system mouse; details: Table 5; estradiol ovalbumin europium conjugate
# Text: […]. The linear peptide 1 is 15-amino acid long. We further explored the possibility whether smaller peptides derived from peptide 1 may have antibody binding activity and receptor binding activity. In order to find out the minimum amino acid sequence required in the linear peptide 1 for antibody and receptor binding, several peptides with varying length of from 4 to 14 amino acids long were synthesized, and were first evaluated in terms of binding to anti-estradiol (E2) mAb clone 15. The peptides showing similar or better antibody binding activity than the linear peptide 1 were further evaluated in terms of binding to ERα and β.
# [6] = test system: creatine kinase (CK) specific activity in rat tissues; experiment: Stimulation of creatine kinase specific activity in rat tissues in vivo
# Method: The control goups received 0.5 ml saline containing 0.5% ethanol or tris-saline alone. The various organs were assayed for CK activity four hours after treatment.
# [7] = test system: anti-progesterone, clone 1E11, anti-estriol, clone 9B4, anti-testosterone, clone 5F2; experiment: ELISA: competition with solid phase hapten protein conjugates for homologous anti-steroidal antibodies; assay type: binding; details: data not shown
# Text: as §1
# [8] = test system: anti-progesterone mAb clone 1E11; experiment: RIA: competition with [3H]-progesterone for anti-progesterone clone 1E11; design: species or system mouse; details: FIG. 4, read-out: IC50, competition with [3H]-progesterone for binding sites of anti-progesterone clone 1E11
# Text: In order to confirm the specific binding activity of the peptides 3 and 4 for the anti-progesterone mnAb clone 1E11, a RIA system where the peptides competed with [^3H]-progesterone for the binding sites of clone 1E11 was used. […]
# [9] = immature female rats, four hours after treatment, estradiol 5 μg/rat, peptides and raloxifene 0.5 mg/rat, mean ± S.E.M., n=15
# Sequence of ER β (Q92731 whole entry, species assumed): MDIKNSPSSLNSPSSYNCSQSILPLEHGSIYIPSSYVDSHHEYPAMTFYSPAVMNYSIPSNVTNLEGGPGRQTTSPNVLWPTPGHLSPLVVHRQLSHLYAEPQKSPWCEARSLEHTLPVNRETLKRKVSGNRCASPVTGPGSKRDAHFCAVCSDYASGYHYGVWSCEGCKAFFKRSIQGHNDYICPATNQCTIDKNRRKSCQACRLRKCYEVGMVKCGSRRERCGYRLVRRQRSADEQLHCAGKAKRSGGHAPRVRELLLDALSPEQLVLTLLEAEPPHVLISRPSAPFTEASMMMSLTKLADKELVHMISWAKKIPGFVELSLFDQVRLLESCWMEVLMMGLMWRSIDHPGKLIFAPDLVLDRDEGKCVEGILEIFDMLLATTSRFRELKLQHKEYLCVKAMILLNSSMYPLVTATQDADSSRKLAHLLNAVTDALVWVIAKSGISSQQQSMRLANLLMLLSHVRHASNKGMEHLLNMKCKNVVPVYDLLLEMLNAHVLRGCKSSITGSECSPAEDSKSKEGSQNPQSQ
smiles,measurement,setting,value
CC(C)C[C@H](NC(=O)[C@H](C)NC(=O)[C@@H]1CCCN1C(=O)[C@@H](N)CC(C)C)C(=O)N[C@@H](CC(=O)O)C(=O)N1CCC[C@H]1C(=O)N[C@H](C(=O)N[C@@H](CCCCN)C(=O)N[C@@H](CCCNC(=N)N)C(=O)N[C@@H](Cc1c[nH]c2ccccc12)C(=O)N[C@@H](Cc1ccccc1)C(=O)N[C@@H](Cc1ccccc1)C(=O)N[C@@H](CCC(=O)O)C(=O)N[C@H](C(=O)N[C@@H](CCCCN)C(=O)O)[C@@H](C)O)[C@@H](C)O [Peptide 1] (H-LPALDPTKRWFFETK-OH; N-terminus and C-terminus assumed),binding to ER β,[1]; FIG. 3,none
same,IC50 to ERβ,[1]; Table 5,none
same,IC50,[2],~5 µM
same,inhibition of the binding of immobilized estradiol ovalbumin conjugate to other high affinity anti-E2 antibodies,[3],not
same,"inhibition of the binding of immobilized estradiol ovalbumin conjugate to anti-E2, clone 15","[4]; ELISA, peptide at a concentration of 0.5 mM",36%
same,recognition of anti-E2 mAb clone 15,[4]; initial binding studies,recognized
same,IC50,[5],1 µM
same,stimulation of CK activity in rat tissues,"[6]; higher concentration 2.5 mg/rat, data not shown",stimulated the CK activity in the epiphysis and aorta as well
same,increase in the specific activity of creatine kinase (CK) in rat tissues,"[6]; immature female rats, 4 hours, estradiol 5 μg/rat, peptides 0.5 mg/rat",increase in CK activity only in the uterus and left ventricle
same,"Creatine kinase specific activity (Experimental/control), Aorta",[6]; [9],1.35 ± 0.23
same,"Creatine kinase specific activity (Experimental/control), Diapysis",[6]; [9],1.09 ± 0.17
same,"Creatine kinase specific activity (Experimental/control), Epipysis",[6]; [9],1.10 ± 0.09
same,"Creatine kinase specific activity (Experimental/control), LV (left ventricle)",[6]; [9],1.41 ± 03
same,"Creatine kinase specific activity (Experimental/control), Uterus",[6]; [9],1.6 ± 0.27
same,competing with solid phase hapten protein conjugates for the binding sites of homologous anti-steroidal antibodies,[7],not capable of competing
CC[C@H](C)[C@H](NC(=O)[C@@H](NC(=O)[C@H](CO)NC(=O)[C@H](CC(C)C)NC(=O)[C@H](Cc1ccccc1)NC(=O)[C@H](CCC(N)=O)NC(=O)[C@H](C)NC(=O)[C@H](CCC(N)=O)NC(=O)[C@H](CC(=O)O)NC(=O)[C@H](Cc1c[nH]c2ccccc12)NC(=O)[C@@H]1CCCN1C(=O)[C@H](Cc1c[nH]cn1)NC(=O)[C@H](CC(N)=O)NC(=O)[C@@H](N)C(C)C)[C@@H](C)O)C(=O)O [Peptide 3] (H-VNHPWDQAQFLSTI-OH),IC50,[8],~100 µM
"CC(C)[C@H](NC(=O)[C@H](Cc1c[nH]cn1)NC(=O)[C@@H]1CSSC[C@H](NC(=O)[C@H](Cc2ccccc2)NC(=O)[C@@H]2CCCN2C(=O)[C@H](CC(N)=O)NC(=O)[C@@H](N)CO)C(=O)N[C@@H](CCC(N)=O)C(=O)N[C@@H]([C@@H](C)O)C(=O)N[C@@H](CC(=O)O)C(=O)NCC(=O)N[C@@H](CC(=O)O)C(=O)N1)C(=O)N[C@@H](Cc1c[nH]cn1)C(=O)N[C@H](C(=O)O)[C@@H](C)O [Peptide 4] (HELM PEPTIDE1{S.N.P.F.C.Q.T.D.G.D.C.H.V.H.T}$PEPTIDE1,PEPTIDE1,5:R3-11:R3$$$V2.0; N-terminus and C-terminus assumed; bridges inferred)",IC50,[8],~5 µM
"CC(=O)[C@H]1CC[C@H]2[C@@H]3CCC4=CC(=O)CC[C@]4(C)[C@H]3CC[C@]12C [Progesterone, progesterone, reference compound]",IC50,[8],< 0.001 µM
